Test results reported in patent publication US4844895A, “Composition containing a peptide fragment of platelet factor four and method for restoring suppressed immune responses” (New York University, priority 1987, dated 1989).
No end group written: not given here.

Tests used:
[1] = test system: Con A-induced suppression; assay: Reversal of Con A-induced suppression of the splenic plaque-forming cell (PFC) response to SRBC in mice; type: in vivo; conditions: for Reversal of Con A-induced suppression (result in words): mice, PFC response to SRBC; for Activity / effective amount on a molar basis relative to the PF4 holoprotein: restoring suppressed immune responses in mice
Protocol: Concanavalin A (Miles--Yeda Ltd., Research Products, Israel) was reconstituted with saline and kept frozen. Dilutions from the frozen stock were stored at 4° C. and injected i.v. into mice one day prior to antigen, sheep erythrocytes (SRBC). SRBC were obtained from Colorado Serum Company (Denver, Colorado) washed, counted and injected intraperitoneally (i.p.) in mice. Human serum or platelet releasate was administered i.v. one to two hours before Con A i.v.
The spleens of the mice were assayed for plaque-forming cells (PFC) on day 5 after injection of sheep red blood cells. The assay employed was as follows: single-cell suspensions were prepared from individual spleens of mice. The cells were suspended in Hanks' Balanced Salt Solution (Gibco Laboratories, Grand Island, New York) and washed. Direct PFC were enumerated using the well-known method of Jerne, N.K. et al (in Cell-Bound Antibody, Amos, E. and Koprowsky, H. eds., Wistar Institute Press. pp. 109-111, […]) with the slide modification of Mishell, R.I. and Dutton, R.W. (J. Exp. Med. 126:423, 1967), both incorporated by reference. […]
When treated with thrombin or A23187 (Calcium ionophore), platelets also release alpha granule constituents other than PF4. In particular, they release LA-PF4 and PDGF. The inventors tested the ability of LA-PF4 and PDGF to overcome suppression induced by 5 μg Con A. […]
Mice were injected with 10 micrograms of Con A i.v. on day -1 (except in the positive control, which received no Con A) and on day 0 with 2.5×10^6 SRBC per mouse as in Example 2 above. On day -1, the mice also received either: Nothing (100% control), Con A only, platelet releasate (equivalent to the amount of PF4 holoprotein contained in the platelet releasate from 2×10^7 platelets or about 0.12 microgram/mouse) and various concentrations of the above-mentioned synthetic C-terminal peptide of human PF4.

[2] = test system: spleen, lymph node and thymus cells; assay: Absorption of immunoregulatory activity by cells from lymphoid organs, read out as reversal of Con A-induced suppression (PFC/spleen); type: in vivo, CB6F1 mouse
Protocol: The spleens of the mice were assayed for plaque-forming cells (PFC) on day 5 after injection of sheep red blood cells. The assay employed was as follows: single-cell suspensions were prepared from individual spleens of mice. The cells were suspended in Hanks' Balanced Salt Solution (Gibco Laboratories, Grand Island, New York) and washed. Direct PFC were enumerated using the well-known method of Jerne, N.K. et al (in Cell-Bound Antibody, Amos, E. and Koprowsky, H. eds., Wistar Institute Press. pp. 109-111, […]) with the slide modification of Mishell, R.I. and Dutton, R.W. (J. Exp. Med. 126:423, 1967), both incorporated by reference.
In order to confirm and expand this finding, 1 ml o serum, diluted 1:2, was absorbed twice for thirty minutes at 4° C. using half the number of cells for each absorption as are listed for spleen (Sp1), lymphnode (LN) and thymus (Thy) in Table 3. Each CB6F1 mouse received 0.2 ml of a 1:4 dilution of absorbed or unabsorbed serum i.v. one to two hours before administration of 2×10^6 SRBC i.v. Plaque-forming cell response was measured as in Example 2.
The experiments were performed exactly as described for the PF4 holoprotein in Example 4 above, except that 0.5 (Expt. 1) or 2.5 micrograms (Expt. 2) of the PF4 tridecapeptide was administered.

monocytes = conditions: Osterman et al, Biochem. Biophys. Res. Comm. 107:130-135, 1982; cited from earlier work
[3] = 10 micrograms Con A, 0.7-1 μg Tridecapeptide
[4] = 10 micrograms Con A, 2.5-7 μg Tridecapeptide
[5] = 10 micrograms Con A, 2.5-7 μg Tridecapeptide on day -1, n 5-10

With “PDGF: platelet-derived growth factor, platelet alpha-granule constituent [reference compound]” the “Geom. Mean of PFC/Spleen On Day 5, Expt. 1” value ([1]; 5 μg Con A, antilog of standard error ≤ 1.1, n = 4, PDGF 0.003 μg per mouse) was 8,370 PFC/Spleen, the “Immunomodulatory activity against suppression induced by 5 μg Con A (result in words)” value ([1]; concentrations well below those in serum: PDGF 0.003 μg, LA-PF4 0.6 μg, purified PF4 0.2 to 0.6 μg per mouse) was “little or not activity” and the “Reversal of Con A-induced suppression (result in words)” value [1] was “no significant immunomodulating activity”.
In the case of “Pro-Leu-Tyr-Lys-Lys-Ile-Ile-Lys-Lys-Leu-Leu-Glu-Ser-COOH (PLYKKIIKKLLES-OH) [Tridecapeptide, carboxy-terminal 13 amino acid residues of human PF4]”, the “Reversal of immunosuppression induced by Con A (result in words)” value ([1]; 0.7-7 micrograms administered to mice) is reported as “active in reversing the immunosuppression induced by Con A”, the “Expt.1 % (of 100% control)” value ([1]; 10 micrograms Con A, 0.007 μg Tridecapeptide) is reported as 52% and the “Geom. Mean PFC/Spleen (SE), Expt.1 PFC” value ([1]; 10 micrograms Con A, 0.007 μg Tridecapeptide on day -1, n 5-10) is reported as 5,700(1.4) PFC/Spleen. The “Expt.1 % (of 100% control)” value ([1]; 10 micrograms Con A, 0.07 μg Tridecapeptide) was 37%, the “Geom. Mean PFC/Spleen (SE), Expt.1 PFC” value ([1]; 10 micrograms Con A, 0.07 μg Tridecapeptide on day -1, n 5-10) was 4,000(1.4) PFC/Spleen and the “Expt.1 % (of 100% control)” value [1, 3] was 95%. For the same substance, the “Expt.2 % (of 100% control)” value [1, 3] was 226%, the “Geom. Mean PFC/Spleen (SE), Expt.1 PFC” value ([1]; 10 micrograms Con A, 0.7-1 μg Tridecapeptide on day -1, n 5-10) was 10,400(1.1) PFC/Spleen and the “Expt.1 % (of 100% control)” value [1, 4] was 99%. The “Expt.3 % (of 100% control)” value [1, 4] was 270%, the “Geom. Mean PFC/Spleen (SE), Expt.1 PFC” value [1, 5] was 10,900(1.2) PFC/Spleen and the “Geom. Mean PFC/Spleen (SE), Expt.3 PFC” value [1, 5] was 38,800(1,1) PFC/Spleen. For the same substance, the “Reversal of Con A-induced suppression (result in words)” value [1] was “able to overcome Con A-induced suppression in a dose-dependent fashion”, the “Activity / effective amount on a molar basis relative to the PF4 holoprotein” value [1] was “less than that of the holoprotein” and the “Activity / effective amount on a molar basis relative to the PF4 holoprotein” value ([1]; listed as PF4 tridecapeptide) was “About three times more”. For the same substance, the “Geom mean PFC/Spleen, Expt. 1 Geom. Mean” value ([2]; SRBC + Con A, 0.5 μg/mouse tridecapeptide, unabsorbed or absorbed with cells) was 23,488 PFC/Spleen, the “Geom mean PFC/Spleen, Expt. 2 Geom. Mean” value ([2]; SRBC + Con A, 2.5 μg/mouse tridecapeptide, unabsorbed or absorbed with cells) was 38,790 PFC/Spleen and the “Absorption of the immunoregulatory activity by cells (result in words)” value ([2]; normal mouse spleen cells) was “spleen cells can absorb”. The “Chemotactic activity for monocytes (result in words)” value (monocytes) was “potent chemotactic agent”.
